Earlier results, collected in patent US20060009642A1, “Methods for the synthesis of substituted purines” (IRM LLC, a Delaware Limited Liability Company, priority 2001, published 2006).

System: cyclin-dependent kinase 1 (CDK1)
Details: binds to the ATP-binding site; Arris et al., J. Med. Chem. 43, 2797 (2000)

Question: For `Nc1nc(OCC2CCCCC2)c2[nH]cnc2n1` [O6-cyclohexylmethylguanine], which “inhibition of CDK1, mode of inhibition” value is on record?
Answer: The value was “competitive inhibitor”.
